In the supplement of paper PMC10307832:

Legend:
Test in all cases: relative viability (nuclei count vs DMSO), 5 days (fraction); higher = more cells survive
Lapatinib + Linsitinib = compound: CS(=O)(=O)CCNCc1ccc(-c2ccc3ncnc(Nc4ccc(OCc5cccc(F)c5)c(Cl)c4)c3c2)o1 [Lapatinib] + C[C@]1(O)C[C@@H](c2nc(-c3ccc4ccc(-c5ccccc5)nc4c3)c3c(N)nccn32)C1 [Linsitinib] (partner 1 µM)
Summary of the method: (§1)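 A single step with final 0.05% Triton X-100, 1% formaldehyde and 1 ug/ml Hoechst fixed the cells and stained nuclei 5 days after treatment. Lung cancer cell lines in 1536-well plates had been treated by pin tool the day after seeding with one drug alone or a fixed anchor-drug dose plus five library-drug doses (not always all listed) in √10 steps, and nuclei were counted on 4× images. Relative viability is the ratio of nuclei in treated wells to nuclei in vehicle wells, taken as the median of duplicate plates.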

Lapatinib + Olaparib = compound: CS(=O)(=O)CCNCc1ccc(-c2ccc3ncnc(Nc4ccc(OCc5cccc(F)c5)c(Cl)c4)c3c2)o1 [Lapatinib] + O=C(c1cc(Cc2n[nH]c(=O)c3ccccc23)ccc1F)N1CCN(C(=O)C2CC2)CC1 [Olaparib] (partner 8 µM)
Summary of the method: as §1

Lapatinib + OSI-027 = compound: CS(=O)(=O)CCNCc1ccc(-c2ccc3ncnc(Nc4ccc(OCc5cccc(F)c5)c(Cl)c4)c3c2)o1 [Lapatinib] + COc1cccc2cc(-c3nc([C@H]4CC[C@H](C(=O)O)CC4)n4ncnc(N)c34)[nH]c12 [OSI-027] (partner 0.5 µM)
Summary of the method: as §1

Lapatinib + Trametinib = compound: CS(=O)(=O)CCNCc1ccc(-c2ccc3ncnc(Nc4ccc(OCc5cccc(F)c5)c(Cl)c4)c3c2)o1 [Lapatinib] + CC(=O)Nc1cccc(-n2c(=O)n(C3CC3)c(=O)c3c(Nc4ccc(I)cc4F)n(C)c(=O)c(C)c32)c1 [Trametinib] (partner 0.02 µM)
Summary of the method: as §1

Cell Line	relative viability (Lapatinib + Linsitinib; first compound 0.06325 µM)	relative viability (Lapatinib + Linsitinib; first compound 0.2 µM)	relative viability (Lapatinib + Linsitinib; first compound 0.6325 µM)	relative viability (Lapatinib + Linsitinib; first compound 2 µM)	relative viability (Lapatinib + Olaparib; first compound 0.02 µM)	relative viability (Lapatinib + Olaparib; first compound 0.06325 µM)	relative viability (Lapatinib + Olaparib; first compound 0.2 µM)	relative viability (Lapatinib + Olaparib; first compound 0.6325 µM)	relative viability (Lapatinib + Olaparib; first compound 2 µM)	relative viability (Lapatinib + OSI-027; first compound 0.06325 µM)	relative viability (Lapatinib + OSI-027; first compound 0.2 µM)	relative viability (Lapatinib + OSI-027; first compound 0.6325 µM)	relative viability (Lapatinib + OSI-027; first compound 2 µM)	relative viability (Lapatinib + Trametinib; first compound 0.02 µM)	relative viability (Lapatinib + Trametinib; first compound 0.06325 µM)	relative viability (Lapatinib + Trametinib; first compound 0.2 µM)	relative viability (Lapatinib + Trametinib; first compound 0.6325 µM)	relative viability (Lapatinib + Trametinib; first compound 2 µM)	relative viability (Lapatinib + Linsitinib; first compound 0.02 µM)	relative viability (Lapatinib + OSI-027; first compound 0.02 µM)
A-427	1.05	1.11	1.17	1.14	0.744	0.733	0.918	0.759	0.527	0.359	0.516	0.541	0.417	0.724	0.631	0.716	0.788	0.691	–	–
201T	0.92	1	1.04	0.909	0.85	0.848	0.858	0.833	0.778	0.598	0.597	0.807	0.703	0.735	0.719	0.694	0.726	0.651	0.96	0.794
NCI-H1944	–	0.959	0.767	0.656	0.397	0.389	0.381	0.354	0.327	0.237	0.356	0.361	0.31	0.41	0.35	0.388	0.322	0.288	–	0.28
SK-LU-1	0.783	1.19	1.01	1.24	0.298	0.449	0.565	0.555	0.433	0.219	0.286	0.353	0.324	0.377	0.43	0.439	0.557	0.507	–	0.292
NCI-H1975	0.927	0.954	0.853	0.694	0.85	0.771	0.772	0.76	0.503	0.472	0.494	0.568	0.446	0.264	0.282	0.328	0.384	0.254	0.843	0.699
NCI-H322M	0.839	0.803	0.767	0.592	0.756	0.711	0.836	0.818	0.763	0.374	0.571	0.46	0.431	0.493	0.435	0.492	0.508	0.377	0.931	0.591
NCI-H1793	–	–	0.605	0.515	–	0.363	0.598	0.537	0.449	0.143	0.235	0.167	0.16	–	0.416	0.469	0.406	0.394	–	–
RERF-LC-KJ	0.806	0.782	0.748	0.697	0.934	0.896	0.947	0.811	0.682	0.344	0.424	0.401	0.315	0.854	0.903	0.758	0.792	0.642	0.841	0.532
NCI-H23	–	0.508	0.588	0.462	–	–	0.266	0.296	0.2	–	0.51	0.639	0.504	–	–	0.368	0.467	0.398	–	–
NCI-H2347	0.97	1.01	0.929	0.926	0.636	0.568	0.598	0.629	0.527	0.266	0.462	0.44	0.366	0.298	0.236	0.278	0.302	0.281	0.963	–
LCLC-97TM1	–	0.186	0.198	0.187	–	0.342	0.417	0.387	0.345	–	0.564	0.497	0.503	–	0.131	0.205	0.181	0.137	–	–
